Data on one molecule can be found in ChEMBL document CHEMBL1159016, “Patellamide E: a new cyclic peptide from the ascidian Lissoclinum patella” (J Nat Prod, 1992).

≈ marks a conversion by molar mass, not a printed value.

The test relates to HCT-116. The test is described as follows: Cytotoxicity against human HCT116 cells. The class given is functional, cell-based.

In the case of `CC[C@H](C)[C@@H]1NC(=O)c2csc(n2)[C@@H](C(C)C)NC(=O)[C@H]2N=C(O[C@@H]2C)[C@H](C(C)C)NC(=O)c2csc(n2)[C@@H](Cc2ccccc2)NC(=O)[C@H]2N=C1O[C@@H]2C` [PATELLAMIDE E], the half-inhibitory concentration (IC50) amounted to 125 µg/mL (≈ 158 µM).

Usually IC50 stands for the point on the concentration scale where inhibition reaches its midpoint. A low value points to inhibition by little substance.
